For the experiment, the system named is E. coli ATCC 33475 (ent-). Format: cell-based, Escherichia coli. As for the experimental part: General microbiology methods are as described herein or according to processes known in the art. […] Bacterial growth was assayed by measuring OD600 using a BioTek Synergy HT plate reader. Each well condition was prepared in duplicate and three independent replicates of each assay were conducted on different days. The resulting mean OD600 are reported and the error bars are the standard deviation of the mean obtained from the three independent replicates.
Three non-pathogenic E. coli strains were employed that are defective in enterobactin synthesis, enterobactin transport, or ferric enterobactin utilization in growth recovery assays. E. coli ATCC 33475 (ent-) cannot biosynthesize enterobactin, but retains the capacity to import and metabolize the siderophore.^71 E. coli H1187 (fepA-) lacks the outer membrane enterobactin receptor. E. coli K-12 JW0576 (fes-) can accumulate ferric enterobactin, but cannot release the iron because it is deficient in the enterobactin esterase Fes. As a result of these defects in iron metabolism, all three strains grow poorly under conditions of iron limitation.^71 The iron chelator 2,2′-dipyridyl (dipyridyl, DP) was used to generate iron-deficient conditions and promote expression of siderophore transport machinery in the growth recovery assays.

As to `O=C(NCCOCCOCCOCCNC(=O)c1cc2cc3c4c(c2oc1=O)CCCN4CCC3)c1cc(O)c(O)c(C(=O)N[C@H]2COC(=O)[C@@H](NC(=O)c3cccc(O)c3O)COC(=O)[C@@H](NC(=O)c3cccc(O)c3O)COC2=O)c1` [conjugate 34, N^3-((3S,7S,11S)-7,11-Bis(2,3-dihydroxybenzamido)-2,6,10-trioxo-1,5,9-trioxacyclododecan-3-yl)-4,5-dihydroxy-N^1-(1-oxo-1-(11-oxo-2,3,5,6,7,1-hexahydro-1H-pyrano[2,3-f]pyrido[3,2,1-ij]quinolin-10-yl)-5,8,11-trioxa-2-azatridecan-13-yl)isophthalamide], the “toxicity to E. coli” value (under iron limitation) was “no toxicity”. For the molecule `O=C(NCCOCCOCCOCCC(=O)N1CCN(c2cc3c(cc2F)c(=O)c(C(=O)O)cn3C2CC2)CC1)c1cc(O)c(O)c(C(=O)N[C@H]2COC(=O)[C@@H](NC(=O)c3cccc(O)c3O)COC(=O)[C@@H](NC(=O)c3cccc(O)c3O)COC2=O)c1` [conjugate 35, 7-(4-(1-(3-(((3S,7S,11S)-7,11-Bis(2,3-dihydroxybenzamido)-2,6,10-trioxo-1,5,9-trioxacyclododecan-3-yl)carbamoyl)-4,5-dihydroxyphenyl)-1-oxo-5,8,11-trioxa-2-azatetradecan-14-oyl)piperazin-1-yl)-1-cyclopropyl-6-fluoro-4-oxo-1,4-dihydroquinoline-3-carboxylic acid], the “effect on E. coli growth in the absence of DP” value was “concentration-dependent inhibition of E. coli growth”. Still for that read-out and setting: under `O=C(NCCCCCC(=O)N1CCN(c2cc3c(cc2F)c(=O)c(C(=O)O)cn3C2CC2)CC1)c1cc(O)c(O)c(C(=O)N[C@H]2COC(=O)[C@@H](NC(=O)c3cccc(O)c3O)COC(=O)[C@@H](NC(=O)c3cccc(O)c3O)COC2=O)c1` [conjugate 40, 7-(4-(6-(3-(((3S,7S,11S)-7,11-Bis(2,3-dihydroxybenzamido)-2,6,10-trioxo-1,5,9-trioxacyclododecan-3-yl)carbamoyl)-4,5-dihydroxybenzamido)hexanoyl)piperazin-yl)-1-cyclopropyl-6-fluoro-4-oxo-1,4-dihydroquinoline-3-carboxylic acid] stands “concentration-dependent inhibition of E. coli growth”. Take `CN[C@H](CC(C)C)C(=O)N[C@H]1C(=O)N[C@@H](CC(N)=O)C(=O)N[C@H]2C(=O)N[C@H]3C(=O)N[C@H](C(=O)N[C@H](C(=O)O)c4cc(O)cc(O)c4-c4cc3ccc4O)[C@H](O)c3ccc(c(Cl)c3)Oc3cc2cc(c3O[C@@H]2OC(CO)[C@@H](O)C(O)C2O[C@H]2CC(C)(N)[C@H](O)C(C)O2)Oc2ccc(cc2Cl)[C@H]1O` (stereo partly shown) [vancomycin, reference compound]: the “activity against E. coli” value (over the concentration range employed) was “inactive against E. coli”.

Values taken from US9902986B2, “Enterobactin conjugates and uses thereof” (Massachusetts Institute of Technology, priority 2013, dated 2018).
